Reference: US10723699B2 (Hyundai Pharm Co., Ltd., priority 2015, dated 2020)
pEC50: −log10 of the molar value. “Also recorded” adds a separate entry of the source. Read-outs that look alike come from different tables or passages of the source.

Columns and labels:
[1] = system: diet-induced obesity (DIO) rat model; test: Changes in weights in diet-induced obesity (DIO) rat model, 4-week administration; format: in vivo, Sprague Dawley (SD) rats; settings: 5 mg/kg oral, 4 weeks
Experimental: To simultaneously evaluate both the weight-loss and hypoglycemic effects of the cyclohexene derivative according to the present invention, experiments were carried out, as follows.
Specifically, male Sprague Dawley (SD) rats (approximately 4 weeks old) in a diet-induced obesity model were fed with a high-fat diet (Lab. Diet Co.) for approximately 10 weeks to induce high-fat diet-induced obesity (DIO). The rats undergoing the high-fat diet were randomly selected, and divided into groups (n=8) for respective administrations. The compounds of Comparative Examples 3 and 4 and Examples 48 and 119 were administered to the divided DIO rats each group for 4 weeks.
The weights of the DIO rats were measured twice a week during a period of administration of 4 weeks to record a change in the weights. At the end of the 4-week period of administration, a hypoglycemic effect was evaluated using an oral glucose tolerance test (OGTT), as follows.

[2] = target: T1, G protein-coupled receptor 119 (GPR-119) (Mesocricetus auratus, UniProt A0A1U8CD06); test: cAMP activity in HIT-T15 cells (cAMP dynamic kit, FRET); format: cell-based, hamster
T1 construct: hamster-derived β-cells containing G protein-coupled receptor 119 (GPR-119), HIT-T15 cells; host or cells: HIT-T15 (hamster pancreatic β-cells)
T1 sequence (A0A1U8CD06 1-334): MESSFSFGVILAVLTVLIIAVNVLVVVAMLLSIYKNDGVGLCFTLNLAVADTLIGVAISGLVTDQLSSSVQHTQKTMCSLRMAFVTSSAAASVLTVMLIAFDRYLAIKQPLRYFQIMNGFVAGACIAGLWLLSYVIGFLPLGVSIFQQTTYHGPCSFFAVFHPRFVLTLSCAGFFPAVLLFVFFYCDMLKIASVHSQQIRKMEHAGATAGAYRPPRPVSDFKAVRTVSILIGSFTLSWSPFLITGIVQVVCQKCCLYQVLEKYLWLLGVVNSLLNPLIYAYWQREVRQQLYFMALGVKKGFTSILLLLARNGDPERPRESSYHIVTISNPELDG
Method in brief: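 Hamster HIT-T15 cells (60,000/well) were treated next day with compound at six concentrations, 0.0032–10 μM, for 1 h at 37° C. Cells were then lysed and cAMP measured by competitive HTRF immunoassay (D2-cAMP, cryptate anti-cAMP). Activity was derived as the change in FRET signal relative to DMSO.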

[3] = 1 hour at 37° C., six concentrations 0.0032 to 10 μM, read-out: EC50

| SMILES | pEC50 [2, 3] | pEC50 ([2]; Table 2, read-out: EC50 value) | other results |
| --- | --- | --- | --- |
| CC(C)CC(N(C)C)C1(c2ccc(Cl)cc2)CCC1 (stereo not drawn) [Comparative Example 4, Sibutramine] |  |  | changes in weights of rats (weight-loss effect) [1]: weight loss was observed for 2 weeks; also recorded: the weight rather increased after 2 weeks |
| CN(CCO)C(=O)C1CC=C(c2ccc(OCC3CCN(C(=O)OC(C)(C)C)CC3)cn2)CC1 (stereo not drawn) [Example 341, tert-butyl 4-((6-(4-((2-hydroxyethyl)(methyl)carbamoyl)cyclohex-1-enyl)pyridin-3-yloxy)methyl)piperidine-1-carboxylate] | 6.74 |  |  |
| O=C(C1CC=C(c2ccc(OCC3CCN(C(=O)C4(C(F)(F)F)CCCC4)CC3)c(F)c2)CC1)N1CCCC1 (stereo not drawn) [Example 409, (4-(3-fluoro-4-((1-(1-(trifluoromethyl)cyclopentanecarbonyl)piperidin-4-yl)methoxy)phenyl)cyclohex-3-enyl)(pyrrolidin-1-yl)methanone] | 7.21 |  |  |
| CCc1cnc(N2CCC(COc3ccc(C4=CCC(C(=O)N5CCN(C)CC5)CC4)cc3F)CC2)nc1 (stereo not drawn) [Example 428, (4-(4-((1-(5-ethylpyrimidin-2-yl)piperidin-4-yl)methoxy)-3-fluorophenyl)cyclohex-3-enyl)(4-methylpiperazin-1-yl)methanone] | 7.15 |  |  |
| CCc1cnc(N2CCC(COc3ccc(C4=CCC(C(=O)N5CCC(CO)CC5)CC4)c(F)c3)CC2)nc1 (stereo not drawn) [Example 432, (4-(4-((1-(5-ethylpyrimidin-2-yl)piperidin-4-yl)methoxy)-2-fluorophenyl)cyclohex-3-enyl)(4-(hydroxymethyl)piperidin-1-yl)methanone] | 7.54 | ≥ 7.30 |  |
| CC(C)c1noc(N2CCC(COc3ccc(C4=CCC(C(=O)NC5CC5)CC4)cc3F)CC2)n1 (stereo not drawn) [Example 363, N-cyclopropyl-4-(3-fluoro-4-((1-(3-isopropyl-1,2,4-oxadiazol-5-yl)piperidin-4-yl)methoxy)phenyl)cyclohex-3-enecarboxamide] | 6.96 |  |  |
| CC(C)c1noc(N2CCC(COc3ccc(C4=CCC(C(=O)N5CCN(CCCO)CC5)CC4)cc3F)CC2)n1 (stereo not drawn) [Example 368, (4-(3-fluoro-4-((1-(3-isopropyl-1,2,4-oxadiazol-5-yl)piperidin-4-yl)methoxy)phenyl)cyclohex-3-enyl)(4-(3-hydroxypropyl)piperazin-1-yl)methanone] | 7.32 | ≥ 7.30 |  |
| CC(C)c1noc(N2CCC(COc3ccc(C4=CCC(C(=O)NC5CCCC5)CC4)cc3F)CC2)n1 (stereo not drawn) [Example 365, N-cyclopentyl-4-(3-fluoro-4-((1-(3-isopropyl-1,2,4-oxadiazol-5-yl)piperidin-4-yl)methoxy)phenyl)cyclohex-3-enecarboxamide] | 7.42 | ≥ 7.30 |  |
| CCc1cnc(N2CCC(COc3ccc(C4=CCC(C(=O)N5CC(F)(F)C(F)(F)C5)CC4)c(F)c3)CC2)nc1 (stereo not drawn) [Example 455, (4-(4-((1-(5-ethylpyrimidin-2-yl)piperidin-4-yl)methoxy)-2-fluorophenyl)cyclohex-3-enyl)(3,3,4,4-tetrafluoropyrrolidin-1-yl)methanone] | 7.74 | ≥ 7.30 |  |
| CCc1cnc(N2CCC(COc3ccc(C4=CCC(C(=O)NCCO)CC4)cc3F)CC2)nc1 (stereo not drawn) [Example 313, 4-(4-((1-(5-ethylpyrimidin-2-yl)piperidin-4-yl)methoxy)-3-fluorophenyl)-N-(2-hydroxyethyl)cyclohex-3-enecarboxamide] | 6.92 |  |  |
| CCc1cnc(N2CCC(COc3ccc(C4=CCC(C(=O)N5CC=CC5)CC4)cc3)CC2)nc1 (stereo not drawn) [Example 235, (2,5-dihydro-1H-pyrrol-1-yl)(4-(4-((1-(5-ethylpyrimidin-2-yl)piperidin-4-yl)methoxy)phenyl)cyclohex-3-enyl)methanone] |  | ≥ 7.30 |  |
| CCc1cnc(N2CCC(COc3ccc(C4=CCC(C(=O)N5CCSCC5)CC4)cc3C#N)CC2)nc1 (stereo not drawn) [Example 389, 2-((1-(5-ethylpyrimidin-2-yl)piperidin-4-yl)methoxy)-5-(4-(thiomorpholine-4-carbonyl)cyclohex-1-enyl)benzonitrile] | 7.17 |  |  |
| CCc1cnc(N2CCC(COc3ccc(C4=CCC(C(=O)N5CCC(F)(F)C5)CC4)cc3F)CC2)nc1 (stereo not drawn) [Example 459, (3,3-difluoropyrrolidin-1-yl)(4-(4-((1-(5-ethylpyrimidin-2-yl)piperidin-4-yl)methoxy)-3-fluorophenyl)cyclohex-3-enyl)methanone] | 7.44 | ≥ 7.30 |  |
| O=C(OC(C(F)(F)F)C(F)(F)F)N1CCC(COc2ccc(C3=CCC(C(=O)N4CCCC4)CC3)cc2F)CC1 (stereo not drawn) [Example 405, 1,1,1,3,3,3-hexafluoropropan-2-yl 4-((2-fluoro-4-(4-(pyrrolidine-1-carbonyl)cyclohex-1-enyl)phenoxy)methyl)piperidine-1-carboxylate] | 7.23 |  |  |
| CC(C)(C)OC(=O)N1CCC(COc2ccc(C3=CCC(C(=O)N4CCC(CO)CC4)CC3)nc2)CC1 (stereo not drawn) [Example 325, tert-butyl 4-((6-(4-(4-(hydroxymethyl)piperidine-1-carbonyl)cyclohex-1-enyl)pyridin-3-yloxy)methyl)piperidine-1-carboxylate] | 7.28 |  |  |
| CC(C)c1noc(N2CCC(COc3ccc(C4=CCC(C(=O)N5CCC6(CC5)OCCO6)CC4)cc3F)CC2)n1 (stereo not drawn) [Example 370, (4-(3-fluoro-4-((1-(3-isopropyl-1,2,4-oxadiazol-5-yl)piperidin-4-yl)methoxy)phenyl)cyclohex-3-enyl)(1,4-dioxa-8-azaspiro[4.5]decan-8-yl)methanone] |  |  | EC50 ([2]; EC50 (nM), 1 hour at 37° C., six concentrations 0.0032 to 10 μM): 15 nM; pEC50 ([2]; EC50 value, Table 2): ≥ 7.30 |
| CCc1cnc(N2CCC(COc3ccc(C4=CCC(C(=O)N5CCN(CCCO)CC5)CC4)cc3)CC2)nc1 (stereo not drawn) [Example 380, (4-(4-((1-(5-ethylpyrimidin-2-yl)piperidin-4-yl)methoxy)phenyl)cyclohex-3-enyl)(4-(3-hydroxypropyl)piperazin-1-yl)methanone] | 7.10 |  |  |
| CCc1cnc(N2CCC(COc3ccc(C4=CCC(C(=O)N5CCC(O)CC5)CC4)cc3C#N)CC2)nc1 (stereo not drawn) [Example 390, 2-((1-(5-ethylpyrimidin-2-yl)piperidin-4-yl)methoxy)-5-(4-(4-hydroxypiperidine-1-carbonyl)cyclohex-1-enyl)benzonitrile] | 7.15 |  |  |
| CCc1cnc(N2CCC(COc3ccc(C4=CCC(C(=O)N5CCC(=NO)CC5)CC4)cc3)CC2)nc1 (stereo not drawn) [Example 277, (4-(4-((1-(5-ethylpyrimidin-2-yl)piperidin-4-yl)methoxy)phenyl)cyclohex-3-enyl)(4-(hydroxyimino)piperidin-1-yl)methanone] |  | ≥ 7.30 |  |
| CC(C)c1noc(N2CCC(COc3ccc(C4=CCC(C(=O)N5CC(=NO)C5)CC4)cn3)CC2)n1 (stereo not drawn) [Example 337, (3-(hydroxyimino)azetidin-1-yl)(4-(6-((1-(3-isopropyl-1,2,4-oxadiazol-5-yl)piperidin-4-yl)methoxy)pyridin-3-yl)cyclohex-3-enyl)methanone] | 6.80 |  |  |
| CCc1cnc(N2CCC(COc3ccc(C4=CCC(C(=O)N(CCO)CCO)CC4)cc3F)CC2)nc1 (stereo not drawn) [Example 323, 4-(4-((1-(5-ethylpyrimidin-2-yl)piperidin-4-yl)methoxy)-3-fluorophenyl)-N,N-bis(2-hydroxyethyl)cyclohex-3-enecarboxamide] | 7.55 | ≥ 7.30 |  |
| CCc1cnc(N2CCC(COc3ccc(C4=CCC(C(=O)N(CCO)CCO)CC4)c(F)c3)CC2)nc1 (stereo not drawn) [Example 437, 4-(4-((1-(5-ethylpyrimidin-2-yl)piperidin-4-yl)methoxy)-2-fluorophenyl)-N,N-bis(2-hydroxyethyl)cyclohex-3-enecarboxamide] | 7.57 | ≥ 7.30 |  |
